What was measured:
ZIKV strain MR766 = test: ZIKV-induced mortality in Ifnar1−/− mice; assay type: in vivo, mouse (C57BL/6 Ifnar1−/−)
SARS-CoV-2-GFP = assay type: cell-based
[1] = tested on: type I IFN response (IFN-β); test: Type I IFN response (IFN-β induction, qRT-PCR) in ZIKV-challenged CHME3 cells; assay type: cell-based, human; settings: ZIKV MR766 MOI 1, 0.1 μM and 1 μM, 48 hours
Description: ZIKV infection activates the type I IFN response via IFN-stimulated genes that are activated by the host after recognition of viral components. If ZIKV is inhibited at a pre-fusion step, viral nucleic acids and proteins will not be exposed to the host cytosol; thus the type I IFN response will not be activated. To test whether DGP treatment prevents activation of the type I IFN response, CHME3 cells we challenged using ZIKV MR766 at an MOI of 1 in the presence of different DGP concentrations. At 48 hours post-challenge, the type I IFN response was assessed using qRT-PCR to measure IFN-β induction (FIG. 5).
ZIKV RNA levels were measured using real-time PCR. HT1080 and VERO cells were challenged by ZIKV MR766 at an MOI of 1 in the presence of DGP. At 48 hours post-challenge, cells were lysed and total RNA was extracted using trizol. Total RNA was used to determine the levels of ZIKV RNA by real-time PCR using specific primers against ZIKA. qRT-PCR was carried out using SYBR green in a 20-μl final volume using a MASTERCYCLER proS machine. The primers used to detect ZIKV were: SEQ ID NO. 1: 5′-TT […]-3′-Forward (Genome Position 941-964) and SEQ ID NO. 2: 5′-[…]-3′-Reverse (Genome position 1123-1103) (AY632535.2). For the detection of SeV, the following primers were used: SEQ ID NO. 3: 5′-[…]-3′-Forward (Genome position 210-233) and SEQ ID NO. […]

[2] = tested on: endosomes and lysosomes of HT1080 cells; test: Acridine Orange fluorescence, endosomal/lysosomal acidification; assay type: cell-based, human; settings: 4 hours pre-incubation, DGP, diphyllin, 6DG 2, 1 or 0.1 μM, Bafilomycin 100 nM, NH4Cl 25 mM
Description: To determine whether DGP inhibited ZIKV infection by preventing the acidification of endosomes and lysosomes, Acridine Orange (AO) was used, a cell-permeable fluorescent dye marker that accumulates in low pH compartments such as endosomes and lysosomes.
HT1080 cells were pre-incubated for 4 hours with the Bafilomycin (FIG. 10A, 100 nM), NH4Cl (FIG. 10A, 25 mM), DGP (FIG. 10B: 2 μM, 1 μM, or 0.1 μM) diphyllin (FIG. 10C: 2 μM, 1 μM, or 0.1 μM), or 6DG (FIG. 10C: 2 μM, 1 μM, or 0.1 μM) to test whether DGP prevents endosomal/lysosomal acidification. After staining the cells with 1 μg/mL of AO, changes in fluorescence were measured using a Celesta flow cytometer on the PerCP-Cy5-5-A channel. A shift in the AO fluorescence is indicated with an arrow in FIGS. 10A-10D.
Acridine Orange (Invitrogen) staining was performed as described previously (Kanzawa, T. et al. 2004, “Role of autophagy in temozolomide-induced cytotoxicity for malignant glioma cells.” Cell Death Differ 11(4): 448-457). Cells were stained with 1 μg/mL AO in 10% FBS DMEM for 30 min at 37° C. and then collected by trypsinization. Changes in fluorescence were measured using a Celesta flow cytometer in the PerCP-Cy5-5-A channel.

ZIKV MR766 = test: qRT-PCR quantification of ZIKV RNA in cells; assay type: cell-based, Zika virus; settings: VERO and HT1080 cells; MOI 1; 48 hours; increasing concentrations
Description: To corroborate these findings, quantitative real-time PCR (qRT-PCR) was used to quantify viral RNA using specific primers for the ZIKV genome (FIG. 3A). VERO and HT1080 cells were challenged with ZIKV at an MOI of 1 in the presence of DGP at the indicated concentrations. At 48 hours post-infection, ZIKV RNA was quantified by qRT-PCR, and normalized to Actin. […] Inhibition of viral RNA production correlated with the inhibition of viral infection (compare FIG. 3A with FIG. 3B).
To detect viral copies of ZIKV and Sendai Virus (SeV) by qRT-PCR, cells were seeded in 24-well plates, with or without DGP treatment, and infected with the virus at the indicated MOI for 48 h. After the incubation period, total RNA from HT1080, VERO, and CHME3 cells was isolated and purified using Trizol (Invitrogen). For detection of ZIKV viral load in brain and spleen, 3 mice were sacrificed at 6 days post-infection and total RNA was extracted from the brain and spleen. For cDNA synthesis, 1 ng of total RNA was reverse transcribed. The reaction mixture included 1 mM of deoxyribonucleotide phosphates (dNTPs), 2 nM of the specific reverse primer of ZIKV or SeV, 1× M-MULV buffer, 10 U M-MuLV RT (BioLabs), and 2 U of RNase Inhibitor. The reaction mixture was incubated for 1 hour at 42° C. followed by 20 min at 65° C. to inactivate the enzyme. […]
ZIKV RNA levels were measured using real-time PCR. […]

TBEV-RVP = assay type: cell-based, tick-borne encephalitis virus

## COc1cc2c(OC3OC(C)C(O)C(O)C3O)c3c(c(-c4ccc5c(c4)OCO5)c2cc1OC)C(=O)OC3 (centres unmarked) [DGP, 6-deoxyglucose-diphyllin]
ZIKV strain MR766; 0.1 mg/kg and 0.2 mg/kg dose (FIG. 8A)
  percent survival: improved
ZIKV strain MR766; 0.2 mg/kg and 1 mg/kg (FIGS. 8B and 8D)
  body weight of surviving mice: able to regain lost body weight
ZIKV strain MR766; 1 mg/kg (FIG. 8C)
  survival: 100%
ZIKV strain MR766; ZIKV + 0.1 mg/kg, footpad co-injection
  time at which group succumbed to viral infection: 10 days post-challenge
ZIKV strain MR766; ZIKV + 0.2 mg/kg, compared with ZIKV group
  appearance of symptoms: delay in the appearance of symptoms
ZIKV strain MR766; ZIKV + 0.2 mg/kg, footpad co-injection
  survival: some mice survived until day 14
ZIKV strain MR766; ZIKV + 1 mg/kg
  disease symptoms: did not show any obvious disease symptoms
ZIKV strain MR766; ZIKV + 1 mg/kg compared to PBS + 1 mg/kg of DGP
  body weight: lower body weights
ZIKV strain MR766; ZIKV + 1 mg/kg, 15 post-challenge days, 6 mice/group
  mice surviving for the length of the experiment: all six mice
SARS-CoV-2-GFP
  concentration sufficient to potently block the entry of SARS-CoV-2-GFP: 0.25 µM
[1]
  activation of the type I IFN response (IFN-β induction): substantially decreased and/or prevented
[2]
  acidification of endosomes and lysosomes (AO fluorescence): decreased AO fluorescence
ZIKV MR766
  synthesis of viral RNA (normalized to Actin): completely inhibited
TBEV-RVP
  TBEV RVP infection: almost undetectable
